Laboratory results from US20260263449A1, “METHODS AND COMPOSITIONS FOR TREATING COCAINE ADDICTION” (The Jackson Laboratory, priority 2023, published 2026).
“Also recorded” adds a separate entry of the source. Where two headings read alike, the source gives them in different places. Each block holds one compound with its values, some of them ahead of it.

How the values were obtained:
guinea pigs = details: cited from earlier work
mice addicted to cocaine = test: cocaine intravenous self-administration (IVSA) in cocaine-addicted mice; type: in vivo
Experimental: The efficacy of PNU-109291 treatment in mice addicted to cocaine was tested. Mice first acquired cocaine IVSA at 0.75 mg/kg cocaine per dose at a fixed-ratio-1 reinforcement schedule, then a fixed-ratio-5 schedule until they stabilized their drug-taking behavior. The animals were then injected with descending doses of PNU-109291 prior to IVSA sessions. Doses of PNU-109291 were separated by vehicle injection, and vehicle-first versus agonist-first order was randomized and counterbalanced.

5-HT1A receptor = target: T1, 5-HT1A receptor (Homo sapiens, UniProt P08908); details: cited from earlier work
T1 sequence (P08908 1-422): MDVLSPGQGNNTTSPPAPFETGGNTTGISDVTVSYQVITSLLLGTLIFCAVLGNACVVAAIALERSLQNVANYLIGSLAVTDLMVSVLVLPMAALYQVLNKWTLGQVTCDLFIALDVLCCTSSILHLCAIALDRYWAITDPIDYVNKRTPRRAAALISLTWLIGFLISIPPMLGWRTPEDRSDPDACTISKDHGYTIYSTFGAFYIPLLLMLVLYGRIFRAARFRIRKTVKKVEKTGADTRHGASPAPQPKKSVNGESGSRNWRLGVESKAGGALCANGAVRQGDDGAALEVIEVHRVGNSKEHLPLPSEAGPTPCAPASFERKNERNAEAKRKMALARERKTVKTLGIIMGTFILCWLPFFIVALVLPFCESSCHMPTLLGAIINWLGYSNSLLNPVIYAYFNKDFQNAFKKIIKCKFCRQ

5-HT2A receptor = 5-HT2A receptor (Homo sapiens, UniProt P28223); details: cited from earlier work
5-HT1B receptor = 5-HT1B receptor (Homo sapiens, UniProt P28222); details: cited from earlier work
5-HT1E receptor = 5-HT1E receptor (Homo sapiens, UniProt P28566); details: cited from earlier work
5-HT2B receptor = 5-HT2B receptor (Homo sapiens, UniProt P41595); details: cited from earlier work
5-HT2C receptor = target: T2, 5-HT2C receptor (Homo sapiens, UniProt P28335); details: cited from earlier work
T2 sequence (P28335 33-458): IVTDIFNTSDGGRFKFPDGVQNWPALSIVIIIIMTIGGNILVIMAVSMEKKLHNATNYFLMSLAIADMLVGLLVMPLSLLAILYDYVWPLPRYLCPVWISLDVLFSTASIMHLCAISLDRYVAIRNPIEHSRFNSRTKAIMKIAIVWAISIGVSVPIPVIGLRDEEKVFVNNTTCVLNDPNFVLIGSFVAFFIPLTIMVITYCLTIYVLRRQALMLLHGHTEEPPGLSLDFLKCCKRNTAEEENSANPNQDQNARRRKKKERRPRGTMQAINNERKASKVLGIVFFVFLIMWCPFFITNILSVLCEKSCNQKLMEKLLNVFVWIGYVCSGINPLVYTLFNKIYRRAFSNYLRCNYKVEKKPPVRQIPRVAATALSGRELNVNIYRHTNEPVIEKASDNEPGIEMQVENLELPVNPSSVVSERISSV

5-HT6 receptor = 5-HT6 receptor (Homo sapiens, UniProt P50406); details: cited from earlier work
5-HT7 receptor = 5-HT7 receptor (Homo sapiens, UniProt P34969); details: cited from earlier work
C57BL/6NJ mice [1] = test: hypothermia bioassay for blood-brain barrier penetration in mice
Experimental: (§1) In some embodiments, the hypothermia bioassay described herein is used to determine whether a drug passes the BBB.
(§2) Thus, if mice developed hypothermia following administration of a drug, the drug was determined to cross the blood-brain barrier. […] Both drugs were formulated using 5% Kolliphor® HS-15 and 5% NMP in saline as a vehicle, as using dimethyl sulfoxide (DMSO), a standard solvent, caused hypothermia by itself.
(§3) The temperature of mice was then monitored for 120 minutes following injection.

C57BL/6NJ mice [2] = details: mouse, in vivo, iv, 10 mg/kg
Experimental: as §1, §2, §3

5-HT2A receptor, sequence (P28223 whole entry): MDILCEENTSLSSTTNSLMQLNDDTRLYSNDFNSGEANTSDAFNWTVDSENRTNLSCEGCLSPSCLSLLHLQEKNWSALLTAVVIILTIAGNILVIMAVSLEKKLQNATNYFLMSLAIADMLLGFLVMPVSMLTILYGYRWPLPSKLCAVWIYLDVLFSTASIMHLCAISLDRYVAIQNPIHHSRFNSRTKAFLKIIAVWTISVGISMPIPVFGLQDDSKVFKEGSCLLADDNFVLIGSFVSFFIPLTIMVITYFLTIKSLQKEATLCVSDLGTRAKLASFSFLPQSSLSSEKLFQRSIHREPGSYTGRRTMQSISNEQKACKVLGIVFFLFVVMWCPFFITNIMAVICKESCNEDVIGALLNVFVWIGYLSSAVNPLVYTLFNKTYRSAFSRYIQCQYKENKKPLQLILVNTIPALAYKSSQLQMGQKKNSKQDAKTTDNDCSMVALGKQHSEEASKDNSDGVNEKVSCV
5-HT1B receptor, sequence (P28222 whole entry): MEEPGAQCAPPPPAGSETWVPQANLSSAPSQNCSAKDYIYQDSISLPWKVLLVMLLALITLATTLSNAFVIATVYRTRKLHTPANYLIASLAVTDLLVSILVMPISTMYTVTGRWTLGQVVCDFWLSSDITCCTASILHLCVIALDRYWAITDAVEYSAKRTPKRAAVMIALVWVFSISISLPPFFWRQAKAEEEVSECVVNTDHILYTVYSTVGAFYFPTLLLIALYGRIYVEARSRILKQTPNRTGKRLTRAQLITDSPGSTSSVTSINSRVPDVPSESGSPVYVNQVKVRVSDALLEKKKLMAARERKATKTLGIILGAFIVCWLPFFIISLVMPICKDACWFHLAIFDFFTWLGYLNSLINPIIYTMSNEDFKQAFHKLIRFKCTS
5-HT6 receptor, sequence (P50406 whole entry): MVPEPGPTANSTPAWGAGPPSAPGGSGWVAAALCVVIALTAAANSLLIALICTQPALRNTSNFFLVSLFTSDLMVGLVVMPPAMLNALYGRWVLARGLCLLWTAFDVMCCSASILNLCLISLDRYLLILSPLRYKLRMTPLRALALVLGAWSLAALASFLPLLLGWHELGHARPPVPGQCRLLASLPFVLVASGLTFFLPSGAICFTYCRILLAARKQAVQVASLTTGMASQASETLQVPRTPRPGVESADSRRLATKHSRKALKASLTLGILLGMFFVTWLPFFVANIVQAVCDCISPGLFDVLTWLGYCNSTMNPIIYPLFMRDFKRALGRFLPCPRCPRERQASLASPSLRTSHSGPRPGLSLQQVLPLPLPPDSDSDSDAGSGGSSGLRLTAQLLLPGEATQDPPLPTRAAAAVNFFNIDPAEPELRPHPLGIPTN
5-HT1E receptor, sequence (P28566 whole entry): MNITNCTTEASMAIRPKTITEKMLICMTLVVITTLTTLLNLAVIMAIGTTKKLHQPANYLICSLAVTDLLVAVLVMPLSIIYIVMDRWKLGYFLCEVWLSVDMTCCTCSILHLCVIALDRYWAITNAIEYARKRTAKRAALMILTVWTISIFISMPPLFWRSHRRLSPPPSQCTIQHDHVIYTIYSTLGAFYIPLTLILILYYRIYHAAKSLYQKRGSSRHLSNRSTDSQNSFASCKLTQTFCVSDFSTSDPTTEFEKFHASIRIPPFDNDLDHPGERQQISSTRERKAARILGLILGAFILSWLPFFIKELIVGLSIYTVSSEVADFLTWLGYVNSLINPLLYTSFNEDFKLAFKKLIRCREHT
5-HT7 receptor, sequence (P34969 whole entry): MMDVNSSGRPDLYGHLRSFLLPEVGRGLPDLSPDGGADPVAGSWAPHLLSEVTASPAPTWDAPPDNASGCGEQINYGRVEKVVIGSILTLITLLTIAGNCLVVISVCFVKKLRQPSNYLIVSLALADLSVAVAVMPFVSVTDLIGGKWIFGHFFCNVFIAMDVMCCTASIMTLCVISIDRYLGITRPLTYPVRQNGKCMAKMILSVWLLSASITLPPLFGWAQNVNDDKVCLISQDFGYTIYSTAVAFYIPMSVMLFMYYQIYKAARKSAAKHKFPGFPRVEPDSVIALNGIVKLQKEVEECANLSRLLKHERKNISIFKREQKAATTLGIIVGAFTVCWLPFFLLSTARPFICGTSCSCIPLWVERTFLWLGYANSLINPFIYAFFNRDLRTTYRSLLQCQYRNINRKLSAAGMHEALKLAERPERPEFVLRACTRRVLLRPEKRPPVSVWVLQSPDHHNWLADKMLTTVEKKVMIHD
5-HT2B receptor, sequence (P41595 whole entry): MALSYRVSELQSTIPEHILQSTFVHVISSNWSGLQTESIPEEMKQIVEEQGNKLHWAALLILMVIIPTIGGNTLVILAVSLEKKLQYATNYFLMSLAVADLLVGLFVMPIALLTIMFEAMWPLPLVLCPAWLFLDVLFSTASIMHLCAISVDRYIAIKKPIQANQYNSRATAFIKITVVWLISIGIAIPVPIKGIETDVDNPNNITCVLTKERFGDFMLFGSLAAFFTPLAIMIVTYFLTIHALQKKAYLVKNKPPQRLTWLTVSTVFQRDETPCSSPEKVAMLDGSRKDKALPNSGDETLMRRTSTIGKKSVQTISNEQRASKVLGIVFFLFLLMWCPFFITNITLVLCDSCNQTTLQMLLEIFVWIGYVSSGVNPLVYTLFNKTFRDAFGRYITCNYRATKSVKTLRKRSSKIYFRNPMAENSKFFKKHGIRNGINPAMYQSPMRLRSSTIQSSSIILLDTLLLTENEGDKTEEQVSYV

Structure (SMILES): COc1ccc(CNC(=O)/C=C/c2ccc3[nH]cc(CCN(C)C)c3c2)cc1 [GR46611]
central hypothermia (guinea pigs; injected directly into the lateral ventricles of guinea pigs): caused central hypothermia

Structure (SMILES): CNC(=O)c1ccc2c(c1)CCO[C@H]2CCN1CCN(c2ccc(OC)cc2)CC1 [PNU-109291, (S)-3,4-Dihydro-1-[2-[4-(4-methoxyphenyl)-1-piperazinyl]ethyl]-N-methyl-1H-2-benzopyran-6-carboxamide]
volitional cocaine-taking (total infusions of cocaine self-administered) (mice addicted to cocaine; intravenous pre-treatment, 10 mg/kg body weight, before IVSA session): significant dose effect; also recorded: reduced volitional cocaine-taking behavior | inactive lever presses (mice addicted to cocaine; intravenous pre-treatment, range of doses): no differences in inactive lever presses; also recorded: no effect | cocaine self-administration, dose dependence (mice addicted to cocaine; range of doses, cocaine-addicted mice): dose-dependent decrease in cocaine self-administration | selectivity for 5-HTR1D over 5-HT1A receptor (5-HT1A receptor): > 600 -fold | selectivity for 5-HTR1D over 5-HT2A receptor (5-HT2A receptor): > 600 -fold | activity at 5-HT1B receptor (5-HT1B receptor): no activity | activity at 5-HT1E receptor (5-HT1E receptor): no activity | activity at 5-HT2B receptor (5-HT2B receptor): no activity | activity at 5-HT2C receptor (5-HT2C receptor): no activity | activity at 5-HT6 receptor (5-HT6 receptor): no activity | activity at 5-HT7 receptor (5-HT7 receptor): no activity | central hypothermia (C57BL/6NJ mice [1]; intravenous administration in mice, dose not given): caused central hypothermia at levels comparable to a known BBB-permeable drug | central hypothermia (internal temperature) (C57BL/6NJ mice [1]; intravenous injection, 10 mg/kg, temperature monitored for 120 minutes, vehicle 5% Kolliphor HS-15 and 5% NMP in saline): induced central hypothermia | blood-brain barrier penetration, inferred from hypothermia (C57BL/6NJ mice [1]; intravenous, 10 mg/kg, mice): can bypass the blood-brain barrier; also recorded: penetrates the blood-brain barrier

Structure (SMILES): CNS(=O)(=O)Cc1ccc2[nH]cc(CCN(C)C)c2c1 [sumatriptan]
central hypothermia (guinea pigs; injected subcutaneously, guinea pigs): does not

blood-brain barrier penetration, inferred from hypothermia (C57BL/6NJ mice [2]): can bypass the blood-brain barrier
Structure (SMILES): CN(C)CCc1c[nH]c2ccc(C[C@H]3COC(=O)N3)cc12 [zolmitriptan]
